Reference: patent US20180289008A1, “METHODS FOR WILDFIRE CONTROL, INVASIVE PLANT CONTROL, AND RESIDUAL CONTROL OF INVASIVE PLANTS” (priority 2017, published 2018)

What was measured:
[1] = system: downy brome, common mullein, Canada thistle, teasel, houndstongue, Scotch thistle, diffuse knapweed, field bindweed; experiment: Seedling control of invasive weeds versus untreated (FIG. 4A-4D); details: in vivo
[2] = system: invasive winter annual grass (downy brome, feral rye, Japanese brome); experiment: Invasive winter annual grass field efficacy studies, biomass as percent of non-treated (Sites 1 and 2 combined); assay type: in vivo, Bromus tectorum, Secale cereale, Bromus japonicus; details: 1 YAT, across all five application timings, 73 and 102 g·ai·ha^−1; POST treatments with glyphosate
Procedure: In year 1, field experiments were conducted to compare the effectiveness of indaziflam and imazapic for long-term invasive winter annual grass control, and to evaluate the response of the native plant communities. The experiments were established at two sites on the Colorado Front Range dominated by invasive winter annual grasses. Site 1 (lat 40° 15′2″N, long 105° 12′56″W) was infested with equal amounts of downy brome and Japanese brome. Site 2 (lat 40° 43′23″N, long 104° 55′58″W) was infested with feral rye. These two sites were approximately 58 km apart. Site 1 was located on Rabbit Mountain Open Space (Boulder County). Site 2 was located on a Colorado Parks and Wildlife Area (Larimer County). Before herbicide application in July, visual estimates were made across the entire study area of percentage of living canopy cover for all species present at both sites.
Site 1 was characterized by ˜80-100% downy brome and Japanese brome canopy cover with a dense fine-fuel layer, e.g., thatch, (2 to 5 cm), and a scattered stand of co-occurring species (˜0-10% canopy cover, Table 4). […]
Biomass harvests and species richness evaluations were conducted in August (year 2 and year 3) to evaluate invasive winter annual grass control and response of co-occurring species. […] Additionally, at Site 1, species richness was calculated for each treatment as a simple estimate of biological diversity. […]

## Cc1ccc2c(c1)[C@H](Nc1nc(N)nc(C(C)F)n1)[C@@H](C)C2 (mixture of isomers) [Indaziflam, N2-[(1R,2S)-2,3-dihydro-2,6-dimethyl-1H-inden-1-yl]-6-[(1RS)-1-fluoroethyl]-1,3,5-triazine-2,4-diamine]
[1]
  seedling control of invasive weeds compared with the untreated (FIG. 4A-4D): improved seedling control of invasive weeds
[2]
  invasive winter annual grass control: > 99%
